{"source": "ChEMBL document CHEMBL5252667", "about": "“Discovery and Optimization of a Novel Macrocyclic Amidinourea Series Active as Acidic Mammalian Chitinase Inhibitors” (ACS Med Chem Lett, 2023)", "key": {"Chitotriosidase-1 [1]": {"target": "T1, Chitotriosidase-1 (Homo sapiens, UniProt Q13231)", "test": "Inhibition of human CHIT1 using 4-methylumbelliferyl-beta-D-N,N',N''-triacetylchitotriose as substrate assessed as substrate hydrolysis by measuring inhibition constant preincubated with compound for 20 mins and measured immediately after substrate addition by fluorescence based assay relative to control"}, "Candida": {"system": "Candida", "test": "Antifungal activity against Candida spp.", "assay_type": "functional"}, "[2]": {"test": "Apparent permeability of compound in phosphate buffer by PAMPA assay", "assay_type": "ADME"}, "[3]": {"test": "Metabolic stability in human liver microsomes assessed as parent compound remaining in the presence of NADPH generating system by HPLC-UVMS analysis", "assay_type": "ADME, Microsome"}, "[4]": {"test": "Aqueous solubility of the compound by HPLC-UV/MS analysis", "assay_type": "physicochemical", "details": "water (aqueous)"}, "[5]": {"target": "Acidic mammalian chitinase (Homo sapiens, UniProt Q9BZP6)", "sequence (Q9BZP6 whole entry)": "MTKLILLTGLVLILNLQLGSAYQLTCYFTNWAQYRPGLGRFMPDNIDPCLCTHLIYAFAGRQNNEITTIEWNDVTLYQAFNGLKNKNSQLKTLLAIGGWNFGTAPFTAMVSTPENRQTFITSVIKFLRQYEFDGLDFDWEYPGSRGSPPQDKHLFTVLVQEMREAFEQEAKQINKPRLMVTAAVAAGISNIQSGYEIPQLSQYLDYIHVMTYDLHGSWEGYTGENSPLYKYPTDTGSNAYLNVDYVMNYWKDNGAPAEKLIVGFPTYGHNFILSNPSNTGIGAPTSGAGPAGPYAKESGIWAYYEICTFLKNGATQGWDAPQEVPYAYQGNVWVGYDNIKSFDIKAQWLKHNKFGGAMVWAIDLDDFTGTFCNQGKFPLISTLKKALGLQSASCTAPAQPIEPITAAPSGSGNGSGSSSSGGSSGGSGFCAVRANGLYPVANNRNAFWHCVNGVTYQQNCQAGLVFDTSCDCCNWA", "test": "Inhibition of human AMCase using 4-methylumbelliferyl-beta-D-N,N',N''-triacetylchitotriose as substrate assessed as substrate hydrolysis by measuring inhibition constant preincubated with compound for 20 mins and measured immediately after substrate addition by fluorescence based assay"}, "Chitotriosidase-1 [6]": {"target": "T1, Chitotriosidase-1", "test": "Inhibition of human CHIT1 using 4-methylumbelliferyl-beta-D-N,N',N''-triacetylchitotriose as substrate assessed as substrate hydrolysis at 10 uM preincubated with compound for 20 mins and measured immediately after substrate addition by fluorescence based assay relative to control"}}, "data": [{"compound": "CNC(=O)NC(=N)NCCCCCCCCN1CCCc2ccccc2COc2cc(Cl)ccc2CNC(=N)NC1=O", "values": [{"measurement": "Ki", "setting": "Chitotriosidase-1 [1]", "result": "> 50", "unit": "µM"}]}, {"compound": "C/C=C/CNC(=N)NCCCCCCCCN1CCCCCCOc2ccccc2CNC(=N)NC1=O", "values": [{"measurement": "MIC", "setting": "Candida", "result": 1, "unit": "µg/mL"}]}, {"compound": "CNC(=O)NC(=N)NCCCCCCCCN1CCCc2ccccc2COc2ccccc2CNC(=N)NC1=O", "values": [{"measurement": "Papp", "setting": "[2]", "result": "< 0.5", "unit": "×10⁻⁶ cm/s"}, {"measurement": "Stability", "setting": "[3]", "result": 76.2, "unit": "%"}, {"measurement": "solubility", "setting": "[4]", "result": 2010, "unit": "µg/mL"}]}, {"compound": "CNC(=O)NC(=N)NCCCCCCCCN1CCCCCOc2ccccc2CNC(=N)NC1=O", "values": [{"measurement": "Papp", "setting": "[2]", "result": "< 0.5", "unit": "×10⁻⁶ cm/s"}, {"measurement": "Stability", "setting": "[3]", "result": 80.9, "unit": "%"}, {"measurement": "solubility", "setting": "[4]", "result": 1810, "unit": "µg/mL"}]}, {"compound": "C/C=C/CNC(=N)NCCCCCCCCN1CCCc2ccccc2COc2ccccc2CNC(=N)NC1=O", "values": [{"measurement": "MIC", "setting": "Candida", "result": 1, "unit": "µg/mL"}]}, {"compound": "CNC(=O)NC(=N)NCCCCCCCCN1CCCc2ccc(OC(F)(F)F)cc2COc2ccccc2CNC(=N)NC1=O", "values": [{"measurement": "Ki", "setting": "[5]", "result": "> 50", "unit": "µM"}]}, {"compound": "CNC(=O)NC(=N)NCCCCCCCCN1CCCc2ccc(F)cc2COc2ccccc2CNC(=N)NC1=O", "values": [{"measurement": "Papp", "setting": "[2]", "result": "< 0.5", "unit": "×10⁻⁶ cm/s"}, {"measurement": "Stability", "setting": "[3]", "result": 98.5, "unit": "%"}, {"measurement": "solubility", "setting": "[4]", "result": 2850, "unit": "µg/mL"}]}, {"compound": "CNC(=S)NC(=N)NCCCCCCCCN1CCCCCCOc2ccccc2CNC(=N)NC1=O", "values": [{"measurement": "Ki", "setting": "Chitotriosidase-1 [1]", "result": "> 50", "unit": "µM"}]}, {"compound": "CNC(=O)NC(=N)NCCCCCCCCN1CCCc2cc(Cl)ccc2COc2ccccc2CNC(=N)NC1=O", "values": [{"measurement": "Papp", "setting": "[2]", "result": "< 0.5", "unit": "×10⁻⁶ cm/s"}, {"measurement": "Stability", "setting": "[3]", "result": 91.5, "unit": "%"}, {"measurement": "solubility", "setting": "[4]", "result": 23100, "unit": "µg/mL"}]}, {"compound": "C/C=C/CNC(=N)NCCCCCCCCN1CCCCCCCCNC(=N)NC1=O", "values": [{"measurement": "MIC", "setting": "Candida", "result": 1, "unit": "µg/mL"}]}, {"compound": "CNC(=O)NC(=N)NCCCCCCCCN1CCCc2ccccc2COc2cc(C)ccc2CNC(=N)NC1=O", "values": [{"measurement": "Ki", "setting": "Chitotriosidase-1 [1]", "result": "> 50", "unit": "µM"}]}, {"compound": "CNC(=O)NC(=N)NCCCCCCCCN1CCCCCCCCNC(=N)NC1=O", "values": [{"measurement": "Ki", "setting": "Chitotriosidase-1 [1]", "result": "> 50", "unit": "µM"}]}, {"compound": "Cn1cnc2c1c(=O)n(CCCn1c(=O)c3nc[nH]c3n(C)c1=O)c(=O)n2C", "values": [{"measurement": "Ki", "setting": "Chitotriosidase-1 [1]", "result": 0.0014, "unit": "µM"}, {"measurement": "Ki", "setting": "[5]", "result": 0.26, "unit": "µM"}, {"measurement": "inhibition", "setting": "Chitotriosidase-1 [6]", "result": 98, "unit": "%"}]}, {"compound": "CNC(=O)NC(=N)NCCCCCCCCN1CCCc2ccccc2COc2ccc(OC)cc2CNC(=N)NC1=O", "values": [{"measurement": "Papp", "setting": "[2]", "result": "< 0.5", "unit": "×10⁻⁶ cm/s"}, {"measurement": "Stability", "setting": "[3]", "result": 98.7, "unit": "%"}, {"measurement": "solubility", "setting": "[4]", "result": 3080, "unit": "µg/mL"}]}]}
